Measured values from the supplement of paper PMC11451515.

Tested on: P12-Ichikawa
Assay: cell viability relative to DMSO control; higher = less cytotoxic
Conditions: 48 h
Outline: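 Before seeding, each leukemia line was adapted for at least four passages in each medium. NOMO1 or SEM cells (500 cells/well) and P12-Ichikawa cells (1000 cells/well) went into 1536-well plates at 5 μl, then received library compounds in DMSO by pin dosing across 11 threefold concentrations, 47 μM to 0.79 nM. Readout was CellTiter-Glo One luminescence after 48 h at 37°C, and viability is given as a per-plate percentage of DMSO wells, with cell-free wells as background.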

[1] = HPLM + 10% dialyzed FBS, 0.000781 µM
[2] = HPLM + 10% dialyzed FBS, 0.00234 µM
[3] = HPLM + 10% dialyzed FBS, 0.00702 µM
[4] = HPLM + 10% dialyzed FBS, 0.0211 µM
[5] = HPLM + 10% dialyzed FBS, 0.0632 µM
[6] = HPLM + 10% dialyzed FBS, 0.19 µM
[7] = HPLM + 10% dialyzed FBS, 0.569 µM
[8] = HPLM + 10% dialyzed FBS, 1.71 µM
[9] = HPLM + 10% dialyzed FBS, 5.12 µM
[10] = HPLM + 10% dialyzed FBS, 15.4 µM
[11] = HPLM + 10% dialyzed FBS, 46.1 µM
[12] = RPMI 5 mM glucose + 10% FBS, 0.000781 µM
[13] = RPMI 5 mM glucose + 10% FBS, 0.00234 µM
[14] = RPMI 5 mM glucose + 10% FBS, 0.00702 µM
[15] = RPMI 5 mM glucose + 10% FBS, 0.0211 µM
[16] = RPMI 5 mM glucose + 10% FBS, 0.0632 µM
[17] = RPMI 5 mM glucose + 10% FBS, 0.19 µM
[18] = RPMI 5 mM glucose + 10% FBS, 0.569 µM
[19] = RPMI 5 mM glucose + 10% FBS, 1.71 µM
[20] = RPMI 5 mM glucose + 10% FBS, 5.12 µM
[21] = RPMI 5 mM glucose + 10% FBS, 15.4 µM
[22] = RPMI 5 mM glucose + 10% FBS, 46.1 µM
[23] = RPMI 5 mM glucose + 10% dialyzed FBS, 0.000781 µM
[24] = RPMI 5 mM glucose + 10% dialyzed FBS, 0.00234 µM
[25] = RPMI 5 mM glucose + 10% dialyzed FBS, 0.00702 µM
[26] = RPMI 5 mM glucose + 10% dialyzed FBS, 0.0211 µM
[27] = RPMI 5 mM glucose + 10% dialyzed FBS, 0.0632 µM
[28] = RPMI 5 mM glucose + 10% dialyzed FBS, 0.19 µM
[29] = RPMI 5 mM glucose + 10% dialyzed FBS, 0.569 µM
[30] = RPMI 5 mM glucose + 10% dialyzed FBS, 1.71 µM
[31] = RPMI 5 mM glucose + 10% dialyzed FBS, 5.12 µM
[32] = RPMI 5 mM glucose + 10% dialyzed FBS, 15.4 µM
[33] = RPMI 5 mM glucose + 10% dialyzed FBS, 46.1 µM

SMILES	cell viability [1] [%]	cell viability [2] [%]	cell viability [3] [%]	cell viability [4] [%]	cell viability [5] [%]	cell viability [6] [%]	cell viability [7] [%]	cell viability [8] [%]	cell viability [9] [%]	cell viability [10] [%]	cell viability [11] [%]	cell viability [12] [%]	cell viability [13] [%]	cell viability [14] [%]	cell viability [15] [%]	cell viability [16] [%]	cell viability [17] [%]	cell viability [18] [%]	cell viability [19] [%]	cell viability [20] [%]	cell viability [21] [%]	cell viability [22] [%]	cell viability [23] [%]	cell viability [24] [%]	cell viability [25] [%]	cell viability [26] [%]	cell viability [27] [%]	cell viability [28] [%]	cell viability [29] [%]	cell viability [30] [%]	cell viability [31] [%]	cell viability [32] [%]	cell viability [33] [%]
CCOC(=O)\C1=C\[C@@H](OC(CC)CC)[C@H](NC(C)=O)[C@@H](N)C1	98.9	95	92.3	97.3	92.3	103	96.9	96	99.6	100	94.9	86	95.3	97.4	95.8	94.3	102	95.7	88.5	102	100	99.9	87.7	79.3	86.5	94.8	90.7	81.4	88.8	86.2	87.4	84.8	99.3
CC1(C)C(N(O)C(=O)Nc2ccc(Cl)cc2)N(c2ccc(Cl)cc2)C(=O)N1CC(=O)N/N=C/C=C/c1ccc([N+](=O)[O-])o1 (configuration not stated)	112	109	111	113	115	104	105	103	99.4	103	65.6	108	105	105	110	113	107	110	106	102	100	52.4	115	104	115	111	109	113	104	103	103	91.3	49
COc1ccc2cc1Oc1ccc(cc1)C[C@H]1c3cc(c(OC)cc3CCN1C)Oc1c(OC)c(OC)cc3c1[C@H](C2)N(C)CC3	113	122	118	118	110	114	113	101	96.8	98.3	63.2	123	118	115	117	113	111	112	111	103	91.2	49.1	114	111	115	106	113	103	105	103	102	95.6	58.5
N#C/C(C(=O)c1ccc(Cl)cc1Cl)=C1/NC(=O)c2ccc(Cl)cc2N1	114	123	108	115	111	111	110	106	103	107	107	115	119	117	107	106	111	107	103	105	105	94.2	106	106	107	110	112	98.9	107	104	97.8	101	98.3
N#C[C@H](O[C@@H]1O[C@H](CO[C@@H]2O[C@H](CO)[C@@H](O)[C@H](O)[C@H]2O)[C@@H](O)[C@H](O)[C@H]1O)c1ccccc1	110	106	108	102	103	96.6	99.5	97.7	90.8	91.7	55.4	99.5	98.5	92.5	97.5	104	99.5	94.2	88.4	89.9	94.5	48.5	98.6	96.2	95.6	101	97.6	86.1	90.6	89	82.9	87.3	31.8
Cc1ncc([N+](=O)[O-])n1CC(C)O (configuration not stated)	105	116	111	110	105	117	114	111	116	125	103	94.3	109	101	104	90.4	113	105	115	104	106	102	102	112	106	104	95.2	112	117	113	111	106	106
OC[C@H]1O[C@@H]2[C@@H](OC\3=N\C(=N)\C=C/[N@@]23)[C@@H]1O	113	119	107	105	95.6	44.3	24.7	13.5	10.7	7.98	8.28	116	118	118	105	93.2	47.3	22.5	12.1	8.81	7.28	6.52	109	122	114	117	92.4	53.2	28.6	17	11.6	9.01	7.41
C1CCN2C[C@H]3C[C@H](\C=C/4CCCN[C@@H]34)[C@H]2C1	105	108	99.3	103	104	110	110	115	111	108	11.1	110	115	121	127	117	123	122	116	115	134	20.8	113	104	101	112	112	109	108	97.6	112	108	19.2
c1ccc(-c2oc3ncnc(NC[C@@H]4CCCO4)c3c2-c2ccccc2)cc1	–	–	–	–	–	–	–	–	–	–	–	–	–	–	–	–	–	–	–	–	–	–	109	118	120	113	127	124	128	115	112	103	49.8
Cc1c(C)c2c(c(C)c1O)CCC(C)(COc1ccc(CC3SC(=O)NC3=O)cc1)O2 (configuration not stated)	112	127	121	126	126	127	131	136	129	118	109	–	–	–	–	–	–	–	–	–	–	–	–	–	–	–	–	–	–	–	–	–	–
C[C@@H](O)[C@@H]1NC(=O)[C@H](CCCCN)NC(=O)[C@@H](Cc2c[nH]c3ccccc23)NC(=O)[C@H](Cc2ccccc2)NC(=O)[C@@H](NC(=O)[C@H](N)Cc2ccccc2)CSSC[C@@H](C(=O)N[C@H](CO)[C@@H](C)O)NC1=O	84.1	94.4	88.9	90.5	91.7	94.1	91.3	95.8	89.4	92	95	76.4	85.1	83	87.2	81.7	81.3	83	83.8	86.4	78.8	81	83	80.8	85.7	82.6	84.9	79.8	80.1	84.7	79.8	79.9	79.7
C=CCc1ccc(O)c(-c2ccc(O)c(CC=C)c2)c1	112	113	–	113	119	28.9	13.7	–	9.66	11.3	18.2	109	110	110	113	120	120	118	17.5	14.9	13.7	11	105	116	113	115	122	113	63.9	25.6	18.4	21.3	21.2
Cc1cccc(/C=N/Nc2cc(N3CCOCC3)nc(OCCc3ccccn3)n2)c1	95.8	102	92	104	103	96.7	89.5	79	67.6	42	28.4	92	97.5	92.7	99	100	96.8	79.5	64.3	53.2	45	26.4	90	89.4	88.5	89.5	89.8	80.6	71.5	60.7	52.3	40	24.9
COc1cc(C(=O)NS(=O)(=O)c2ccccc2C)ccc1Cc1cn(C)c2ccc(NC(=O)OC3CCCC3)cc12	73.2	81.6	85.9	90.7	89.8	86.6	86.5	89.1	88.8	104	72.3	82.7	78.3	79.2	88.1	77.8	83.6	84.4	85	90.1	87	5.73	76.9	74	76.6	81.6	83.8	78.3	89.6	82.3	92.5	87.4	44.2
CC[C@]1(O)C[C@@H]2CN(CCc3c([nH]c4ccccc34)[C@@](C(=O)OC)(c3cc4c(cc3OC)N(C)[C@H]3[C@@](O)(C(N)=O)[C@H](O)[C@]5(CC)C=CCN6CC[C@]43[C@@H]65)C2)C1	112	109	112	97.5	78.4	18.3	20.5	14.2	7.56	7.86	9.96	109	115	115	98.6	65.8	16.7	22.7	14	8.37	6.73	6.12	111	103	106	104	101	34.3	22.8	29.1	13.8	10.1	11.5
C[S+](=O)([O-])c1ccc(Oc2cc(F)cc(C#N)c2)c2c1[C@H](O)C(F)(F)C2	92.8	96.9	102	100	102	107	103	104	110	109	96.3	91.5	100	103	117	108	107	112	105	105	106	97.8	92.6	105	108	110	115	110	104	110	110	104	106
